Test results from patent EP4741420A1, “PHARMACEUTICAL COMPOSITION FOR PREVENTING OR TREATING OBESITY COMPRISING GLP ANALOGUE AS ACTIVE INGREDIENT” (priority 2023, dated 2025).
Peptide text beside a SMILES is read from it.

Assays:
GLP-2 = molecular target: T1, GLP-2 (Homo sapiens, UniProt O95838); assay: GLP-2 activity, cell-based cAMP assay (same method as Example 2); conditions: Example 5, relative to GLP-2
T1 sequence (O95838 1-553): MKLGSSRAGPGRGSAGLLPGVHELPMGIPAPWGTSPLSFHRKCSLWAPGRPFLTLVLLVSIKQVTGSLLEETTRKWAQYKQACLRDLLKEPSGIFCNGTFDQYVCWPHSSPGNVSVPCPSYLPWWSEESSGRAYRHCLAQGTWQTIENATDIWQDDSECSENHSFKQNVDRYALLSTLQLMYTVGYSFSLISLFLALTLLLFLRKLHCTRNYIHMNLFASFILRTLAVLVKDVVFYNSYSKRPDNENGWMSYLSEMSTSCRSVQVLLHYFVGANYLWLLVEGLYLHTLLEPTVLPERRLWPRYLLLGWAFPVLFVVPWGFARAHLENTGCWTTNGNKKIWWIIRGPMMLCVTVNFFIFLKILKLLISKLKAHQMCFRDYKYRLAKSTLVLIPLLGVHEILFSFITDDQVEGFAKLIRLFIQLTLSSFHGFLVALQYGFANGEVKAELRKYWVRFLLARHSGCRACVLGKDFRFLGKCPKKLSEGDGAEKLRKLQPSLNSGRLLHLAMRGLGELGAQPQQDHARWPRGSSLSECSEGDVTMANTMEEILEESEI

C57BL/6 DIO mice [1] = assay: Diet-induced obesity mouse model: blood/serum biochemical tests (Example 3); format: in vivo; conditions: after 4 weeks, 0.20 mg/kg/dose (dose from Table 3)
Method: Here, the body weight and food intake were measured daily.
(§1) In addition, after the experiment was completed, blood and serum samples were obtained from each mouse model, and biochemical tests were performed for blood glucose, total cholesterol, high-density lipoprotein (HDL), low-density lipoprotein (LDL), and triglycerides.

[2] = test system: diet-induced obesity (DIO) mouse model; assay: DIO mouse model QD: obesity-related factors in plasma (Example 7-4); format: in vivo; conditions: DIO mice, QD (once daily), 45 nmol/kg/dose
Method: as §1
The anti-obesity effects of SEQ ID NO: 1 prepared in Example 1, and SEQ ID NOs: 6 and 7 prepared in Example 4 were analyzed. […] In addition, as an experimental model, a diet-induced obesity (DIO) mouse model fed a high-fat diet for 3 months was used.
To analyze the anti-obesity effect, mouse plasma was obtained postmortem to measure obesity-related factors in plasma. Here, the analysis method was the same as described in Example 3.

C57BL/6 DIO mice [3] = assay: Diet-induced obesity mouse model: body weight and food intake (Example 3); format: in vivo; conditions: 4 weeks administration, 0.20 mg/kg/dose
GLP-1R = GLP-1R (Homo sapiens, UniProt P43220); assay: GLP-1 activation: cell-based cAMP assay in GLP-1R/CHO cells
Sequence of GLP-1R (P43220 24-463): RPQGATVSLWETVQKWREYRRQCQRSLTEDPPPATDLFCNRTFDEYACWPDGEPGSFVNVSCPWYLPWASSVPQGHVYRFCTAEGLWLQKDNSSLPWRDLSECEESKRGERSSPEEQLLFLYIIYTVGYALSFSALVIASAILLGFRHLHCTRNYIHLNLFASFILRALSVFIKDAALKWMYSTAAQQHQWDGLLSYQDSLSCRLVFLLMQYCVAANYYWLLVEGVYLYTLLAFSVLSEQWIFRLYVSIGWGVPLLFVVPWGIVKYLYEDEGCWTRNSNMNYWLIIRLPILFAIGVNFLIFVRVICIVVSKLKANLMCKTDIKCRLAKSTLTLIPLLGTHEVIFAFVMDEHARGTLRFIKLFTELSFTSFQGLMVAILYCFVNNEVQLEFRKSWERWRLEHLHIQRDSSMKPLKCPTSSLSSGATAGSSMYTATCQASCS

Q: Which results are given for `CCCCCCCCCCCCCCCC(=O)N[C@@H](CCC(=O)NCCCC[C@H](NC(=O)[C@H](CCCCN)NC(=O)[C@H](CC(=O)O)NC(=O)[C@@H](NC(=O)[C@@H](NC(=O)[C@H](CCCCN)NC(=O)[C@@H](NC(=O)[C@H](CCC(N)=O)NC(=O)[C@@H](NC(=O)[C@H](CC(C)C)NC(=O)[C@H](Cc1c[nH]c2ccccc12)NC(=O)[C@H](CC(N)=O)NC(=O)[C@@H](NC(=O)[C@H](Cc1ccccc1)NC(=O)[C@H](CC(=O)O)NC(=O)[C@H](CCCNC(=N)N)NC(=O)[C@H](C)NC(=O)[C@H](C)NC(=O)[C@H](CC(C)C)NC(=O)[C@H](C)NC(=O)[C@H](CC(=O)O)NC(=O)[C@H](CC(C)C)NC(=O)[C@H](Cc1ccc(O)cc1)NC(=O)[C@@H](NC(=O)[C@H](CO)NC(=O)[C@H](CC(C)C)NC(=O)[C@H](CC(=O)O)NC(=O)[C@H](CO)NC(=O)[C@@H](NC(=O)[C@H](Cc1ccccc1)NC(=O)[C@@H](NC(=O)CNC(=O)[C@H](CCC(=O)O)NC(=O)CNC(=O)[C@@H](N)Cc1c[nH]cn1)[C@@H](C)O)[C@@H](C)O)[C@@H](C)O)[C@@H](C)CC)[C@@H](C)CC)[C@@H](C)O)[C@@H](C)CC)[C@@H](C)O)C(=O)O)C(=O)O` [HU020K2FA] (HELM PEPTIDE1{H.G.E.G.T.F.T.S.D.L.S.T.Y.L.D.A.L.A.A.R.D.F.I.N.W.L.I.Q.T.K.I.T.D.K.K}|PEPTIDE2{[CCCCCCCCCCCCCCCC(=O)[*:2]].[gGlu]}$PEPTIDE1,PEPTIDE2,35:R3-2:R2$$$V2.0; N-terminus and C-terminus assumed)?
A: GLP-2 activity Compared to GLP-2 (GLP-2): ~ 0.02%; Blood glucose (C57BL/6 DIO mice [1]): 192.0 ± 20.2 mg/dL; High-density lipoprotein (C57BL/6 DIO mice [1]): 76.0 ± 4.0 mg/dL; Low-density lipoprotein (C57BL/6 DIO mice [1]): 9.8 ± 1.5 mg/dL; Toal cholesterol (C57BL/6 DIO mice [1]): 134.8 ± 10.7 mg/dL; Triglyceride (C57BL/6 DIO mice [1]): 13.6 ± 4.8 mg/dL; HbA1c (%) ([2]; blood): 4.39±0.21%; GLU ([2]; plasma): 209.2 ± 9.3 mg/dL; HDL ([2]; plasma): 100.4 ± 9.3 mg/dL; LDL ([2]; plasma): 8.9 ± 9.3 mg/dL; TCHO ([2]; plasma): 198.6 ± 24.3 mg/dL; TG ([2]; plasma): 75.1 ± 19.4 mg/dL; Cumulative food intake (C57BL/6 DIO mice [3]): 55.3 ± 4.0 g; Weight (C57BL/6 DIO mice [3]): 36.6 ± 4.0 g; Weight change (%) (C57BL/6 DIO mice [3]; compared to day 0): -19.4±4.7%; GLP-1 activity Compared to GLP-1 (Exendin-4) (GLP-1R; Example 5, relative to Exendin-4): 23.6%; Average (n=4) Relative to GLP-1 (Exendin-4) % (GLP-1R; GLP-1R/CHO cells, cAMP, relative to Exendin-4 (Example 2)): 63.4±29.4%
